# Results: patent publication US11166959B2, “Isofuranone compounds useful as HPK1 inhibitors” (BRISTOL-MYERS SQUIBB COMPANY, priority 2017, dated 2021)
# Where two headings read alike, the source gives them in different places.
# How the values were obtained:
# [1] = target: T1, HPK1 (Homo sapiens, UniProt Q92918); experiment: HPK1 Inhibition Assay (kinase reaction, Caliper capillary electrophoresis); format: biochemical; settings: for IRAK4/HPK1 Ratio: ratio of the IRAK4 IC50 value to the HPK1 IC50 value
# T1 construct: purchased SignalChem M23-11G
# T1 sequence (Q92918 1-346 limits assumed): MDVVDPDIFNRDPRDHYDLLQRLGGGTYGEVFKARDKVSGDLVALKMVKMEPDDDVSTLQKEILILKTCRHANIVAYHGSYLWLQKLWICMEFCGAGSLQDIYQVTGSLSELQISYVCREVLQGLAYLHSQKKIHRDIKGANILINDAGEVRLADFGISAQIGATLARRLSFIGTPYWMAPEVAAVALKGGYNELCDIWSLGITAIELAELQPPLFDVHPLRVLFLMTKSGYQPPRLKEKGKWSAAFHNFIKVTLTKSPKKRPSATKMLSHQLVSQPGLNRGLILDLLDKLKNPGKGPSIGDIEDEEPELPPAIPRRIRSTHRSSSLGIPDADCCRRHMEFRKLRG
# In short: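 Kinase reactions ran 3 h and were stopped with 1 mM EDTA, with enzyme level and time set for at most 20-30% peptide substrate conversion. Phosphorylated and unphosphorylated peptide were separated by capillary electrophoresis to measure conversion. IC50 derived from 11 compound concentrations.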
# [2] = target: T2, IRAK4 (Homo sapiens, UniProt Q9NWZ3); experiment: IRAK4 Inhibition Assay (kinase reaction, Caliper capillary electrophoresis); format: biochemical; settings: 500 μM ATP, 11 concentrations
# T2 construct: 1 nM IRAK4 (160-460); purchased SignalChem M24016
# T2 sequence (Q9NWZ3 160-460): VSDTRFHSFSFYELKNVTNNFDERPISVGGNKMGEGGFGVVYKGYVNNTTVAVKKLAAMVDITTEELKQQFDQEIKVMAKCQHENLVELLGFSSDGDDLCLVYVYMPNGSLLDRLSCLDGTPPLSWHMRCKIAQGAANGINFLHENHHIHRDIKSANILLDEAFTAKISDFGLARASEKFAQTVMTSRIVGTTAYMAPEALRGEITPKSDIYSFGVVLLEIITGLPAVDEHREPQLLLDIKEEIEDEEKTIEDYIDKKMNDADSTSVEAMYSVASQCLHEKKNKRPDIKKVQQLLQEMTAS
# [3] = 0.625 nM HPK1, 22 μM ATP, 11 concentrations, read-out: HPK1 IC50
Structure (SMILES),"IC50 [1, 3] [nM]",IRAK4/HPK1 Ratio [1],IC50 [2] [nM],IC50 [1] [nM]
"Cc1noc(-c2cnc(Nc3ccc4c(c3)C(C)(C)OC4=O)nc2Nc2ccc3[nH]ncc3c2)n1 [Example 74, 5-({4-[(1H-indazol-5-yl)amino]-5-(3-methyl-1,2,4-oxadiazol-5-yl)pyrimidin-2-yl}amino)-3,3-dimethyl-1,3-dihydro-2-benzofuran-1-one]",50 to 250,B (B=10 to 50),250 to 1000,–
"CC1(C)OC(=O)c2ccc(Nc3ncc(-c4nc(C5CC5)no4)c(Nc4ccc5[nH]ncc5c4)n3)cc21 [Example 75, 5-{[5-(3-cyclopropyl-1,2,4-oxadiazol-5-yl)-4-[(1H-indazol-5-yl)amino]pyrimidin-2-yl]amino}-3,3-dimethyl-1,3-dihydro-2-benzofuran-1-one]",50 to 250,B (B=10 to 50),250 to 1000,–
"CCOC(=O)c1cnc(Nc2ccc3c(c2)C(C)(C)OC3=O)nc1NCCC(C)(C)N [Example 76, Ethyl 4-[(3-amino-3-methylbutyl)amino]-2-[(3,3-dimethyl-1-oxo-1,3-dihydro-2-benzofuran-5-yl)amino]pyrimidine-5-carboxylate]",50 to 250,B (B=10 to 50),250 to 1000,–
"CC1(C)OC(=O)c2ccc(Nc3cc(N[C@H](CO)c4ccccc4)c(-c4nc(C5CC5)no4)cn3)cc21 [Example 78, 5-{[5-(3-cyclopropyl-1,2,4-oxadiazol-5-yl)-4-{[(1S)-2-hydroxy-1-phenylethyl]amino}pyridin-2-yl]amino}-3,3-dimethyl-1,3-dihydro-2-benzofuran-1-one]",50 to 250,B (B=10 to 50),250 to 1000,–
"CC1(C)OC(=O)c2ccc(Nc3cc(N[C@H](CO)C4CC4)c(-c4nc(C5CC5)no4)cn3)cc21 [Example 79, 5-{[5-(3-cyclopropyl-1,2,4-oxadiazol-5-yl)-4-{[(1S)-1-cyclopropyl-2-hydroxyethyl]amino}pyridin-2-yl]amino}-3,3-dimethyl-1,3-dihydro-2-benzofuran-1-one]",50 to 250,B (B=10 to 50),250 to 1000,–
"CC1(C)OC(=O)c2ccc(Nc3cc(N[C@H](CO)c4ccccc4)c(-c4nc(C56CCN(CC5)CC6)no4)cn3)nc21 [Example 81, 2-{[5-(3-{1-azabicyclo[2.2.2]octan-4-yl}-1,2,4-oxadiazol-5-yl)-4-{[(1S)-2-hydroxy-1-phenylethyl]amino}pyridin-2-yl]amino}-7,7-dimethyl-5H,7H-furo[3,4-b]pyridin-5-one]",–,C (C=>50),50 to 250,< 50
"CC1(C)OC(=O)c2ccc(Nc3cc(N[C@H](CO)c4ccc(F)cc4)c(-c4nc(C56CCN(CC5)CC6)no4)cn3)nc21 [Example 82, 2-{[5-(3-{1-azabicyclo[2.2.2]octan-4-yl}-1,2,4-oxadiazol-5-yl)-4-{1[(1S)-1-(4-fluorophenyl)-2-hydroxyethyl]amino}pyridin-2-yl]amino}-7,7-dimethyl-5H,7H-furo [3,4-b]pyridin-5-one]",–,C (C=>50),50 to 250,< 50
"CC1(C)OC(=O)c2ccc(Nc3cc(N[C@H](CO)c4ccccc4)c(-c4nc(C5CN6CCC5(F)CC6)no4)cn3)nc21 (stereo partly drawn) [Example 83, 2-{[5-(3-{4-fluoro-1-azabicyclo[2.2.2]octan-3-yl}-1,2,4-oxadiazol-5-yl)-4-{[(1S)-2-hydroxy-1-phenylethyl]amino}pyridin-2-yl]amino}-7,7-dimethyl-5H,7H-furo [3,4-b]pyridin-5-one]",–,C (C=>50),50 to 250,< 50
"CC1(C)OC(=O)c2ccc(Nc3cc(NCc4nccs4)c(-c4nc(C56CCN(CC5)CC6)no4)cn3)nc21 [Example 84, 2-{[5-(3-{1-azabicyclo[2.2.2]octan-4-yl}-1,2,4-oxadiazol-5-yl)-4-{[(1,3-thiazol-2-yl)methyl]amino}pyridin-2-yl]amino}-7,7-dimethyl-5H,7H-furo[3,4-b]pyridin-5-one]",< 50,C (C=>50),250 to 1000,–
"CC1(C)OC(=O)c2ccc(Nc3cc(NCc4cccnc4)c(-c4nc(C56CCN(CC5)CC6)no4)cn3)nc21 [Example 85, 2-{[5-(3-{1-azabicyclo[2.2.2]octan-4-yl}-1,2,4-oxadiazol-5-yl)-4-{[(pyridin-3-yl)methyl]amino}pyridin-2-yl]amino}-7,7-dimethyl-5H,7H-furo[3,4-b]pyridin-5-one]",< 50,C (C=>50),250 to 1000,–

# Further lines, with some results ahead:
"IC50 [1, 3] [nM]",IRAK4/HPK1 Ratio [1],IC50 [2] [nM],Structure (SMILES),IC50 [1] [nM]
< 50,B (B=10 to 50),250 to 1000,"CCOC(=O)c1cnc(Nc2ccc3c(c2)C(C)(C)OC3=O)nc1NCc1ccccc1C(C)(C)O [Example 71, Ethyl 2-[(3,3-dimethyl-1-oxo-1,3-dihydro-2-benzofuran-5-yl)amino]-4-({[2-(2-hydroxypropan-2-yl)phenyl]methyl}amino)pyrimidine-5-carboxylate]",–
50 to 250,B (B=10 to 50),250 to 1000,"Cc1noc(-c2cnc(Nc3ccc4c(c3)C(C)(C)OC4=O)nc2NCc2ccccc2C(C)(C)O)n1 [Example 72, 5-{[4-({[2-(2-hydroxypropan-2-yl)phenyl]methyl}amino)-5-(3-methyl-1,2,4-oxadiazol-5-yl)pyrimidin-2-yl]amino}-3,3-dimethyl-1,3-dihydro-2-benzofuran-1-one]",–
50 to 250,B (B=10 to 50),250 to 1000,"CC(C)(O)c1ccccc1CNc1nc(Nc2ccc3c(c2)C(C)(C)OC3=O)ncc1-c1nc(C2CC2)no1 [Example 73, 5-{[5-(3-cyclopropyl-1,2,4-oxadiazol-5-yl)-4-({[2-(2-hydroxypropan-2-yl)phenyl]methyl}amino)pyrimidin-2-yl]amino}-3,3-dimethyl-1,3-dihydro-2-benzofuran-1-one]",–
< 50,C (C=>50),250 to 1000,"CC(C)(CN)CNc1nc(Nc2ccc3c(c2)C(C)(C)OC3=O)ncc1-c1nc(C2CCOCC2)no1 [Example 77, 5-({4-[(3-amino-2,2-dimethylpropyl)amino]-5-[3-(oxan-4-yl)-1,2,4-oxadiazol-5-yl]pyrimidin-2-yl}amino)-3,3-dimethyl-1,3-dihydro-2-benzofuran-1-one]",–
< 50,B (B=10 to 50),50 to 250,"CC1(C)OC(=O)c2ccc(Nc3cc(N[C@H](CO)c4ccccc4)c(-c4nnc(C5CC5)o4)cn3)nc21 [Example 86, 2-{[5-(5-cyclopropyl-1,3,4-oxadiazol-2-yl)-4-{[(1S)-2-hydroxy-1-phenylethyl]amino}pyridin-2-yl]amino}-7,7-dimethyl-5H,7H-furo[3,4-b]pyridin-5-one]",–
< 50,B (B=10 to 50),50 to 250,"O=C1OC2(CCCC2)c2nc(Nc3cc(N[C@H](CO)c4ccccc4)c(-c4nc(C5CC5)no4)cn3)ccc21 [Example 87, (S)-2′-((5-(3-cyclopropyl-1,2,4-oxadiazol-5-yl)-4-((2-hydroxy-1-phenylethyl)amino)pyridin-2-yl)amino)-5′H-spiro[cyclopentane-1,7′-furo[3,4-b]pyridin]-5′-one]",–
< 50,C (C=>50),250 to 1000,"CC1(C)OC(=O)c2ccc(Nc3cc(N[C@H](CO)c4ccccc4)c(-c4nnc(C5(C#N)CC5)o4)cn3)nc21 [Example 88, 1-{5-[6-({7,7-dimethyl-5-oxo-5H,7H-furo[3,4-b]pyridin-2-yl}amino)-4-{[(1S)-2-hydroxy-1-phenylethyl]amino}pyridin-3-yl]-1,3,4-oxadiazol-2-yl}cyclopropane-1-carbonitrile]",–
